Measurements reported in the NIST ThermoML archive (doi:10.1016/j.tca.2018.11.018).
± gives the expanded uncertainty stated by the source.

Assay: xn = mol fraction of the nth substance listed
Conditions: 100 kPa, Liquid; for viscosity: Falling or rolling sphere viscometry; for mass density: Vibrating tube method

CCCC[n+]1ccccc1.[Br-] [1-butylpyridinium bromide] + O
Conditions	mass density [kg/m3]	viscosity [mPa·s]
298.15 K, x1 = 0.03	1068.5 ± 1	1.544 ± 0.093
298.15 K, x1 = 0.06	1118.5 ± 1	2.378 ± 0.14
298.15 K, x1 = 0.09	1154.8 ± 1	3.424 ± 0.21
298.15 K, x1 = 0.13	1189.9 ± 1.1	5.218 ± 0.32
298.15 K, x1 = 0.17	1214.8 ± 1.1	8.606 ± 0.52
298.15 K, x1 = 0.211	1233.8 ± 1.2	12.22 ± 0.74
298.15 K, x1 = 0.25	1247.8 ± 1.2	16.44 ± 1
298.15 K, x1 = 0.291	1259.5 ± 1.3	24.37 ± 1.5
298.15 K, x1 = 0.332	1268.9 ± 1.5	30.3 ± 1.9
298.15 K, x1 = 0.377	1277.4 ± 1.7	42.55 ± 2.6
303.15 K, x1 = 0.03	1066.2 ± 1	1.36 ± 0.082
303.15 K, x1 = 0.06	1115.6 ± 1	2.067 ± 0.12
303.15 K, x1 = 0.09	1151.6 ± 1	2.951 ± 0.18
303.15 K, x1 = 0.13	1186.5 ± 1.1	4.45 ± 0.27
303.15 K, x1 = 0.17	1211.3 ± 1.1	7.401 ± 0.45
303.15 K, x1 = 0.211	1230.3 ± 1.2	10.37 ± 0.63
303.15 K, x1 = 0.25	1244.4 ± 1.2	13.83 ± 0.84
303.15 K, x1 = 0.291	1256.1 ± 1.3	18.59 ± 1.1
303.15 K, x1 = 0.332	1265.6 ± 1.5	24.78 ± 1.5
303.15 K, x1 = 0.377	1274 ± 1.7	34.24 ± 2.1
308.15 K, x1 = 0.03	1063.8 ± 1	1.212 ± 0.073
308.15 K, x1 = 0.06	1112.6 ± 1	1.82 ± 0.11
308.15 K, x1 = 0.09	1148.3 ± 1	2.575 ± 0.16
308.15 K, x1 = 0.13	1183 ± 1.1	3.851 ± 0.23
308.15 K, x1 = 0.17	1207.8 ± 1.1	6.345 ± 0.38
308.15 K, x1 = 0.211	1226.8 ± 1.2	8.845 ± 0.54
308.15 K, x1 = 0.25	1240.9 ± 1.2	11.68 ± 0.71
308.15 K, x1 = 0.291	1252.7 ± 1.3	15.55 ± 0.95
308.15 K, x1 = 0.332	1262.2 ± 1.5	20.41 ± 1.2
308.15 K, x1 = 0.377	1270.7 ± 1.7	27.78 ± 1.7
313.15 K, x1 = 0.03	1061.2 ± 1	1.089 ± 0.066
313.15 K, x1 = 0.06	1109.6 ± 1	1.617 ± 0.098
313.15 K, x1 = 0.09	1145 ± 1	2.268 ± 0.14
313.15 K, x1 = 0.13	1179.5 ± 1.1	3.356 ± 0.2
313.15 K, x1 = 0.17	1204.2 ± 1.1	5.426 ± 0.33
313.15 K, x1 = 0.211	1223.3 ± 1.1	7.548 ± 0.46
313.15 K, x1 = 0.25	1237.5 ± 1.2	10.01 ± 0.61
313.15 K, x1 = 0.291	1249.3 ± 1.3	13.05 ± 0.8
313.15 K, x1 = 0.332	1258.8 ± 1.5	16.97 ± 1
313.15 K, x1 = 0.377	1267.3 ± 1.7	22.77 ± 1.4
318.15 K, x1 = 0.03	1058.6 ± 1	0.985 ± 0.06
318.15 K, x1 = 0.06	1106.4 ± 1	1.447 ± 0.088
318.15 K, x1 = 0.09	1141.6 ± 1	2.014 ± 0.12
318.15 K, x1 = 0.13	1176 ± 1.1	2.954 ± 0.18
318.15 K, x1 = 0.17	1200.7 ± 1.1	4.671 ± 0.28
318.15 K, x1 = 0.211	1219.8 ± 1.1	6.488 ± 0.39
318.15 K, x1 = 0.25	1234 ± 1.2	8.493 ± 0.52
318.15 K, x1 = 0.291	1245.9 ± 1.3	11.08 ± 0.68
318.15 K, x1 = 0.332	1255.4 ± 1.5	14.29 ± 0.87
318.15 K, x1 = 0.377	1264 ± 1.7	18.95 ± 1.2
323.15 K, x1 = 0.03	1055.7 ± 1	0.897 ± 0.054
323.15 K, x1 = 0.06	1103.2 ± 1	1.306 ± 0.079
323.15 K, x1 = 0.09	1138.1 ± 1	1.805 ± 0.11
323.15 K, x1 = 0.13	1172.4 ± 1.1	2.617 ± 0.16
323.15 K, x1 = 0.17	1197.1 ± 1.1	4.051 ± 0.25
323.15 K, x1 = 0.211	1216.3 ± 1.1	5.616 ± 0.34
323.15 K, x1 = 0.25	1230.5 ± 1.2	7.331 ± 0.45
323.15 K, x1 = 0.291	1242.4 ± 1.3	9.521 ± 0.58
323.15 K, x1 = 0.332	1252 ± 1.5	12.17 ± 0.74
323.15 K, x1 = 0.377	1260.6 ± 1.7	15.95 ± 0.98
328.15 K, x1 = 0.03	1052.8 ± 1	0.822 ± 0.05
328.15 K, x1 = 0.06	1099.9 ± 1	1.185 ± 0.072
328.15 K, x1 = 0.09	1134.7 ± 1	1.623 ± 0.098
328.15 K, x1 = 0.13	1168.8 ± 1.1	2.359 ± 0.14
328.15 K, x1 = 0.17	1193.5 ± 1.1	3.564 ± 0.22
328.15 K, x1 = 0.211	1212.7 ± 1.1	4.914 ± 0.3
328.15 K, x1 = 0.25	1227 ± 1.2	6.394 ± 0.39
328.15 K, x1 = 0.291	1239 ± 1.3	8.281 ± 0.51
328.15 K, x1 = 0.332	1248.6 ± 1.5	10.52 ± 0.64
328.15 K, x1 = 0.377	1257.3 ± 1.7	13.65 ± 0.84
333.15 K, x1 = 0.03	1049.9 ± 1	0.758 ± 0.046
333.15 K, x1 = 0.06	1096.5 ± 1	1.081 ± 0.065
333.15 K, x1 = 0.09	1131.1 ± 1	1.474 ± 0.089
333.15 K, x1 = 0.13	1165.2 ± 1.1	2.113 ± 0.13
333.15 K, x1 = 0.17	1189.9 ± 1.1	3.178 ± 0.19
333.15 K, x1 = 0.211	1209.1 ± 1.1	4.327 ± 0.26
333.15 K, x1 = 0.25	1223.4 ± 1.2	5.626 ± 0.34
333.15 K, x1 = 0.291	1235.5 ± 1.3	7.256 ± 0.44
333.15 K, x1 = 0.332	1245.4 ± 1.5	9.187 ± 0.56
333.15 K, x1 = 0.377	1253.9 ± 1.7	11.84 ± 0.73
338.15 K, x1 = 0.03	1046.6 ± 1	0.704 ± 0.043
338.15 K, x1 = 0.06	1092.8 ± 1	1.002 ± 0.061
338.15 K, x1 = 0.09	1127.5 ± 1	1.353 ± 0.082
338.15 K, x1 = 0.13	1161.5 ± 1.1	1.912 ± 0.12
338.15 K, x1 = 0.17	1186.2 ± 1.1	2.852 ± 0.17
338.15 K, x1 = 0.211	1205.5 ± 1.1	3.835 ± 0.23
338.15 K, x1 = 0.25	1219.9 ± 1.2	4.96 ± 0.3
338.15 K, x1 = 0.291	1232 ± 1.3	6.395 ± 0.39
338.15 K, x1 = 0.332	1241.8 ± 1.5	8.064 ± 0.49
338.15 K, x1 = 0.377	1250.6 ± 1.6	10.31 ± 0.63
343.15 K, x1 = 0.03	1043.2 ± 1	0.66 ± 0.04
343.15 K, x1 = 0.06	1089.5 ± 1	0.92 ± 0.056
343.15 K, x1 = 0.09	1123.9 ± 1	1.235 ± 0.075
343.15 K, x1 = 0.13	1157.8 ± 1.1	1.741 ± 0.11
343.15 K, x1 = 0.17	1182.6 ± 1.1	2.367 ± 0.14
343.15 K, x1 = 0.211	1201.9 ± 1.1	3.463 ± 0.21
343.15 K, x1 = 0.25	1216.3 ± 1.2	4.428 ± 0.27
343.15 K, x1 = 0.291	1228.5 ± 1.3	5.687 ± 0.35
343.15 K, x1 = 0.332	1238.3 ± 1.4	7.153 ± 0.44
343.15 K, x1 = 0.377	1247.2 ± 1.6	9.118 ± 0.56
348.15 K, x1 = 0.03	1039.8 ± 1	0.618 ± 0.037
348.15 K, x1 = 0.06	1086 ± 1	0.862 ± 0.052
348.15 K, x1 = 0.09	1120.1 ± 1	1.139 ± 0.069
348.15 K, x1 = 0.13	1154.1 ± 1.1	1.591 ± 0.096
348.15 K, x1 = 0.17	1178.9 ± 1.1	2.149 ± 0.13
348.15 K, x1 = 0.211	1198.3 ± 1.1	3.138 ± 0.19
348.15 K, x1 = 0.25	1212.8 ± 1.2	3.971 ± 0.24
348.15 K, x1 = 0.291	1225 ± 1.3	5.06 ± 0.31
348.15 K, x1 = 0.332	1234.9 ± 1.4	6.384 ± 0.39
348.15 K, x1 = 0.377	1243.8 ± 1.6	8.095 ± 0.5
